Data as given in patent US20190255040A1, “COMPOSITION AND METHOD FOR TOPICAL JS-K AS THERAPY FOR ACTINIC KERATOSIS” (JSK THERAPEUTICS, INC, priority 2018, published 2019).

What was measured:
[1] = tested on: human squamous skin carcinoma Cells (HatCat cells); experiment: Suppression of the growth in culture of human squamous skin carcinoma cells; type: cell-based; settings: growth over a two-day period (FIG. 1), read-out: IC50 for suppressing growth of human squamous skin carcinoma cells
Description: FIG. 1 is a scatter plot illustrating the growth of human squamous skin carcinoma cells (HatCat 5K-Cells [10 μM]) over a two-day period;
Referring to FIG. 1, JS-K at 12 mg/mL in […] of acetone was active in suppressing the growth in culture of human squamous skin carcinoma Cells (HatCat cells) with IC50 concentrations <1000 nM, compared to no effect from dimethylsulfoxide (DMSO) or P1223 pluronic micellesAfd.

[2] = tested on: UV-induced skin damage in SKH1 mice; experiment: Animal efficacy for UV damage: UVB-exposed SKH1 mice, topical treatment, skin histology; type: in vivo
Description: Eight week-old female SKH1 mice were used. There were 5 mice in the control (no treatment, no UV) group and 10 mice in each treatment group. Treated mice all received one exposure of 600 Joules/m2 of UVB.
Immediately after UVB treatment, mice in each group were treated as follows: 200 uL of acetone only; JS-K at a concentration of 12 mg/mL in 200 uL of acetone; JS-K at a concentration of 6 mg/mL in 200 uL of acetone. Treatments were started immediately after UVB exposure and given twice (8 hours apart) on Day 1 and Day 2. On Day 3, mice were sacrificed and skin collected for histologic analysis.
H&E staining was used (FIG. 2A) to evaluate the count of Sunburn Cells, which are keratinocytes undergoing UV-induced apoptosis. […] The differences with controls were statistically significant for the higher dose of JS-K (12 mg/mL).
8-OG is a marker of oxydative damage.

CCOC(=O)N1CCN(/[N+]([O-])=N/Oc2ccc([N+](=O)[O-])cc2[N+](=O)[O-])CC1 [JS-K, O2-(2,4-dinitrophenyl)1-[(4-ethoxycarbonyl)piperazin-1-yI]diazen-1-ium-1,2-diolate] was tested, and the IC50 [1] was less than 1000 nM, the “count of Sunburn Cells (keratinocytes undergoing UV-induced apoptosis), H&E staining” value ([2]; 600 Joules/m2 UVB, JS-K 6 or 12 mg/mL in 200 uL acetone topically twice daily Day 1-2, skin Day 3, significant only for 12 mg/mL) was “moderate decrease in the number of Sunburn Cells with a dose effect” and the “percent of cells positive for 8-oxoguanine (8-OG), immunohistochemistry” value ([2]; 600 Joules/m2 UVB, JS-K 6 or 12 mg/mL in 200 uL acetone twice daily Day 1-2, dose effect, significant for both doses) was “fewer cells from the mice treated with JS-K were positive for 8-OG”. For the same compound, the “epidermal thickness of UV-exposed skin” value ([2]; 600 Joules/m2 UVB, JS-K 6 or 12 mg/mL, 12 mg/mL markedly greater effect than 6 mg/mL) was “dose dependent JS-K effect on epidermal thickness” and the “toxicity, skin irritation, skin ulceration or infection with the treatments” value ([2]; topical JS-K 6 or 12 mg/mL in 200 uL acetone twice daily Day 1-2) was “no evidence of toxicity, skin irritation, skin ulceration, or infection”.
